ChEMBL document CHEMBL1201861, “Genomics of Drug Sensitity in Cancer screening data, Wellcome Trust Sanger Institute”

Legend:
Test in all cases: cells
[1] = test system: HGC-27; type: functional, cell-based, Homo sapiens; settings: Homo sapiens, HGC-27;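 further: growth inhibition of human HGC-27 cells, read out in a cell viability assay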
Description: SANGER: Inhibition of human HGC-27 cell growth in a cell viability assay.

[2] = test system: A673; type: functional, cell-based, Homo sapiens; settings: Homo sapiens, A673;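 further: growth inhibition of human A673 cells, read out through a cell viability assay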
Description: SANGER: Inhibition of human A673 cell growth in a cell viability assay.

[3] = test system: CAL-12T; type: functional, cell-based, Homo sapiens; settings: Homo sapiens, CAL-12T;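 further: growth inhibition of human CAL-12T cells, read out with a cell viability assay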
Description: SANGER: Inhibition of human CAL-12T cell growth in a cell viability assay.

[4] = test system: NCI-H810; type: functional, cell-based, Homo sapiens; settings: Homo sapiens, NCI-H810;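 further: IC50 reflects inhibition of cancer cell line growth, read out with a cell viability assay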
Description: SANGER: Inhibition of human NCI-H810 cell growth in a cell viability assay.

[5] = test system: MKN-7; type: functional, cell-based, Homo sapiens; settings: Homo sapiens, MKN-7;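 further: growth inhibition of MKN-7 cells, read out with a cell viability assay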
Description: SANGER: Inhibition of human MKN7 cell growth in a cell viability assay.

[6] = test system: ES8; type: functional, cell-based, Homo sapiens; settings: Homo sapiens, ES8;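 further: growth inhibition of human ES8 cells, read out with a cell viability assay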
Description: SANGER: Inhibition of human ES8 cell growth in a cell viability assay.

[7] = test system: DoTc2-4510; type: functional, cell-based, Homo sapiens; settings: Homo sapiens, DoTc2-4510
[8] = test system: NCI-H1648; type: functional, cell-based, Homo sapiens; settings: Homo sapiens, NCI-H1648;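 further: cell viability assay measuring inhibition of NCI-H1648 cell growth, from the Sanger screening data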
Description: SANGER: Inhibition of human NCI-H1648 cell growth in a cell viability assay.

[9] = test system: MG-63; type: functional, cell-based, Homo sapiens; settings: Homo sapiens, MG-63;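 further: growth inhibition of human MG-63 cells, read out with a cell viability assay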
Description: SANGER: Inhibition of human MG-63 cell growth in a cell viability assay.

[10] = test system: AU565; type: functional, cell-based, Homo sapiens; settings: Homo sapiens, AU565;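 further: cell viability assay measuring growth inhibition of human AU565 cells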
Description: SANGER: Inhibition of human AU565 cell growth in a cell viability assay.

[11] = test system: NCI-H2052; type: functional, cell-based, Homo sapiens; settings: Homo sapiens, NCI-H2052;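 further: growth inhibition of NCI-H2052 cells, read out with a cell viability assay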
Description: SANGER: Inhibition of human NCI-H2052 cell growth in a cell viability assay.

[12] = test system: NCI-H510A; type: functional, cell-based; settings: Homo sapiens;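 further: growth inhibition of NCI-H510A cells, read out with a cell viability assay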
Description: SANGER: Inhibition of human NCI-H510A cell growth in a cell viability assay.

[13] = test system: YKG-1; type: functional, cell-based, Homo sapiens; settings: Homo sapiens, YKG-1;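 further: cell growth inhibition, read out with a viability assay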
Description: SANGER: Inhibition of human YKG-1 cell growth in a cell viability assay.

[14] = test system: NCI-H1770; type: functional, cell-based; settings: Homo sapiens;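 further: growth inhibition of NCI-H1770 cells determined with a viability readout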
Description: SANGER: Inhibition of human NCI-H1770 cell growth in a cell viability assay.

[15] = test system: RS4-11; type: functional, cell-based; settings: Homo sapiens;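 further: growth inhibition of RS4-11 cells, read out by a cell viability assay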
Description: SANGER: Inhibition of human RS4-11 cell growth in a cell viability assay.

[16] = test system: HSC-2; type: functional, cell-based, Homo sapiens; settings: Homo sapiens, HSC-2;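 further: growth inhibition of human HSC-2 cells, read out by a cell viability assay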
Description: SANGER: Inhibition of human HSC-2 cell growth in a cell viability assay.

[17] = test system: 647-V; type: functional, cell-based, Homo sapiens; settings: Homo sapiens, 647-V;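 further: growth inhibition of 647-V cells, read out with a cell viability assay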
Description: SANGER: Inhibition of human 647-V cell growth in a cell viability assay.

[18] = test system: NCI-H2170; type: functional, cell-based, Homo sapiens; settings: Homo sapiens, NCI-H2170;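 further: cell viability assay measuring growth inhibition of human NCI-H2170 cancer cells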
Description: SANGER: Inhibition of human NCI-H2170 cell growth in a cell viability assay.

[19] = test system: ML-2; type: functional, cell-based; settings: Homo sapiens;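 further: growth inhibition of ML-2 cells, measured with a cell viability readout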
Description: SANGER: Inhibition of human ML-2 cell growth in a cell viability assay.

[20] = test system: HCE-4; type: functional, cell-based, Homo sapiens; settings: Homo sapiens, HCE-4;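 further: cell viability assay measuring inhibition of growth in the human HCE-4 cell line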
Description: SANGER: Inhibition of human HCE-4 cell growth in a cell viability assay.

[21] = test system: ASPC1; type: functional, cell-based, Homo sapiens; settings: Homo sapiens, ASPC1;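 further: growth inhibition of AsPC-1 cells, read out with a cell viability assay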
Description: SANGER: Inhibition of human AsPC-1 cell growth in a cell viability assay.

[22] = test system: KY821; type: functional, cell-based; settings: Homo sapiens;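 further: growth inhibition of human KY821 cells, read out by a cell viability assay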
Description: SANGER: Inhibition of human KY821 cell growth in a cell viability assay.

[23] = test system: GCIY; type: functional, cell-based, Homo sapiens; settings: Homo sapiens, GCIY;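 further: growth inhibition of the human GCIY cell line, read out by a cell viability assay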
Description: SANGER: Inhibition of human GCIY cell growth in a cell viability assay.

[24] = test system: HCC1187; type: functional, cell-based, Homo sapiens; settings: Homo sapiens, HCC1187;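 further: growth inhibition of HCC1187 cells, read out with a cell viability assay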
Description: SANGER: Inhibition of human HCC1187 cell growth in a cell viability assay.

[25] = test system: 769-P; type: functional, cell-based, Homo sapiens; settings: Homo sapiens, 769-P
Description: SANGER: Inhibition of human 769-P cell growth in a cell viability assay.

[26] = test system: NCI-H596; type: functional, cell-based, Homo sapiens; settings: Homo sapiens, NCI-H596;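 further: growth inhibition of NCI-H596 cells, read out with a cell viability assay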
Description: SANGER: Inhibition of human NCI-H596 cell growth in a cell viability assay.

[27] = test system: SW948; type: functional, cell-based, Homo sapiens; settings: Homo sapiens, SW948;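 further: growth inhibition of SW948 cells, read out with a cell viability assay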
Description: SANGER: Inhibition of human SW948 cell growth in a cell viability assay.

[28] = test system: T98G; type: functional, cell-based, Homo sapiens; settings: Homo sapiens, T98G;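 further: growth inhibition of T98G cells, read out by a cell viability assay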
Description: SANGER: Inhibition of human T98G cell growth in a cell viability assay.

[29] = test system: A704; type: functional, cell-based, Homo sapiens; settings: Homo sapiens, A704;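 further: growth inhibition of human A704 cells, read out with a cell viability assay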
Description: SANGER: Inhibition of human A704 cell growth in a cell viability assay.

[30] = test system: RT-112; type: functional, cell-based, Homo sapiens; settings: Homo sapiens, RT-112
Description: SANGER: Inhibition of human RT-112 cell growth in a cell viability assay.

[31] = test system: OAW-42; type: functional, cell-based, Homo sapiens; settings: Homo sapiens, OAW-42;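 further: growth inhibition of OAW-42 cells, read out with a cell viability assay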
Description: SANGER: Inhibition of human OAW-42 cell growth in a cell viability assay.

[32] = test system: A498; type: functional, cell-based, Homo sapiens; settings: Homo sapiens, A498;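 further: growth inhibition of human A498 cells, read out with a cell viability assay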
Description: SANGER: Inhibition of human A498 cell growth in a cell viability assay.

[33] = test system: G-401; type: functional, cell-based, Homo sapiens; settings: Homo sapiens, G-401
Description: SANGER: Inhibition of human G-401 cell growth in a cell viability assay.

[34] = test system: COLO-680N; type: functional, cell-based, Homo sapiens; settings: Homo sapiens, COLO-680N;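 further: cell viability assay used to measure inhibition of COLO-680N cell growth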
Description: SANGER: Inhibition of human COLO-680N cell growth in a cell viability assay.

[35] = test system: LU-99A; type: functional, cell-based, Homo sapiens; settings: Homo sapiens, LU-99A;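 further: growth inhibition of LU-99A cells, read out with a cell viability assay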
Description: SANGER: Inhibition of human LU-99A cell growth in a cell viability assay.

[36] = test system: OCUB-M; type: functional, cell-based, Homo sapiens; settings: Homo sapiens, OCUB-M;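 further: growth inhibition of the cancer cell line, read out through a cell viability assay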
Description: SANGER: Inhibition of human OCUB-M cell growth in a cell viability assay.

[37] = test system: NCI-H2405; type: functional, cell-based, Homo sapiens; settings: Homo sapiens, NCI-H2405;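 further: growth inhibition of the human cell line, read out with a cell viability assay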
Description: SANGER: Inhibition of human NCI-H2405 cell growth in a cell viability assay.

[38] = test system: NCI-H441; type: functional, cell-based; settings: Homo sapiens;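 further: growth inhibition of NCI-H441 cells, read out with a cell viability assay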
Description: SANGER: Inhibition of human NCI-H441 cell growth in a cell viability assay.

[39] = test system: A2058; type: functional, cell-based; settings: Homo sapiens;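 further: reduction of A2058 cell growth, read out with a viability assay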
Description: SANGER: Inhibition of human A2058 cell growth in a cell viability assay.

[40] = test system: J-RT3-T3-5; type: functional, cell-based; settings: Homo sapiens;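 further: cell viability assay measuring growth inhibition of human J-RT3-T3-5 cells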
Description: SANGER: Inhibition of human J-RT3-T3-5 cell growth in a cell viability assay.

[41] = test system: YAPC; type: functional, cell-based, Homo sapiens; settings: Homo sapiens, YAPC;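 further: growth inhibition of YAPC cells, measured with a cell viability assay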
Description: SANGER: Inhibition of human YAPC cell growth in a cell viability assay.

[42] = test system: NCI-H2452; type: functional, cell-based, Homo sapiens; settings: Homo sapiens, NCI-H2452;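 further: growth inhibition of NCI-H2452 cells, read out with a cell viability assay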
Description: SANGER: Inhibition of human NCI-H2452 cell growth in a cell viability assay.

[43] = test system: PFSK-1; type: functional, cell-based, Homo sapiens; settings: Homo sapiens, PFSK-1;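 further: cell viability assay measuring how strongly compounds suppress growth of human PFSK-1 cells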
Description: SANGER: Inhibition of human PFSK-1 cell growth in a cell viability assay.

[44] = test system: LU-134-A; type: functional, cell-based; settings: Homo sapiens
Description: SANGER: Inhibition of human LU-134-A cell growth in a cell viability assay.

[45] = test system: IGROV-1; type: functional, cell-based, Homo sapiens; settings: Homo sapiens, IGROV-1;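 further: reduction of IGROV-1 cell growth, read out with a viability assay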
Description: SANGER: Inhibition of human IGROV-1 cell growth in a cell viability assay.

[46] = test system: HOS; type: functional, cell-based, Homo sapiens; settings: Homo sapiens, HOS;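 further: growth inhibition of human HOS cells, read out with a cell viability assay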
Description: SANGER: Inhibition of human HOS cell growth in a cell viability assay.

[47] = test system: Calu-6; type: functional, cell-based, Homo sapiens; settings: Homo sapiens, Calu-6;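 further: growth of human Calu-6 cells, read out by a cell viability assay, IC50 marking inhibition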
Description: SANGER: Inhibition of human Calu-6 cell growth in a cell viability assay.

[48] = test system: A253 cell line; type: functional, cell-based, Homo sapiens; settings: Homo sapiens, A253;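 further: growth inhibition of A253 cells, read out with a cell viability assay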
Description: SANGER: Inhibition of human A253 cell growth in a cell viability assay.

[49] = test system: NKM-1; type: functional, cell-based; settings: Homo sapiens;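 further: growth inhibition of NKM-1 cells, read out with a cell viability assay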
Description: SANGER: Inhibition of human NKM-1 cell growth in a cell viability assay.

[50] = test system: LB373-MEL-D; type: functional, cell-based, Homo sapiens; settings: Homo sapiens, LB373-MEL-D;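 further: growth inhibition of the cell line, read out in a cell viability assay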
Description: SANGER: Inhibition of human LB373-MEL-D cell growth in a cell viability assay.

[51] = test system: ES1; type: functional, cell-based, Homo sapiens; settings: Homo sapiens, ES1;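 further: growth inhibition of ES1 cells, read out with a cell viability assay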
Description: SANGER: Inhibition of human ES1 cell growth in a cell viability assay.

## COC(=O)CNC(=O)C(=O)OC
[1]
  IC50: 188 µM
[2]
  IC50: 526 µM
[3]
  IC50: 26.6 µM
[4]
  IC50: 630 µM
[5]
  IC50: > 4 mM
[6]
  IC50: 673 µM
[7]
  IC50: 153 µM
[8]
  IC50: 1.67 mM
[9]
  IC50: 144 µM
[10]
  IC50: > 4000 µM
[11]
  IC50: 2.88 mM
[12]
  IC50: 237 µM
[13]
  IC50: 767 µM
[14]
  IC50: > 4000 µM
[15]
  IC50: 34.2 µM
[16]
  IC50: 504 µM
[17]
  IC50: 93.5 µM
[18]
  IC50: > 4000 µM
[19]
  IC50: 178 µM
[20]
  IC50: 546 µM
[21]
  IC50: 3.92 mM
[22]
  IC50: > 4 mM
[23]
  IC50: 109 µM
[24]
  IC50: > 4 mM
[25]
  IC50: > 4000 µM
[26]
  IC50: > 4 mM
[27]
  IC50: 2.62 mM
[28]
  IC50: 666 µM
[29]
  IC50: 1.14 mM
[30]
  IC50: 176 µM
[31]
  IC50: 425 µM
[32]
  IC50: 663 µM
[33]
  IC50: 1460 µM
[34]
  IC50: 242 µM
[35]
  IC50: 197 µM
[36]
  IC50: > 4000 µM
[37]
  IC50: 261 µM
[38]
  IC50: 839 µM
[39]
  IC50: 166 µM
[40]
  IC50: 1740 µM
[41]
  IC50: > 4 mM
[42]
  IC50: 966 µM
[43]
  IC50: 274 µM
[44]
  IC50: > 4000 µM
[45]
  IC50: 1390 µM
[46]
  IC50: 636 µM
[47]
  IC50: 732 µM
[48]
  IC50: 232 µM
[49]
  IC50: 126 µM
[50]
  IC50: 710 µM
[51]
  IC50: 1260 µM

## COc1cc([C@@H]2c3cc4c(cc3[C@@H](O[C@@H]3O[C@@H]5CO[C@@H](C)O[C@H]5[C@H](O)[C@H]3O)[C@H]3COC(=O)[C@H]23)OCO4)cc(OC)c1O [ETOPOSIDE]
[1]
  IC50: 0.102 µM
[2]
  IC50: 2.16 µM
[3]
  IC50: 11.1 µM
[4]
  IC50: 1.58 µM
[5]
  IC50: > 0.016 mM
[6]
  IC50: 0.142 µM
[7]
  IC50: 1.05 µM
[8]
  IC50: > 0.016 mM
[9]
  IC50: 1.18 µM
[10]
  IC50: 2.61 µM
[11]
  IC50: 0.0115 mM
[12]
  IC50: 8.65 µM
[13]
  IC50: 1.23 µM
[14]
  IC50: 3.87 µM
[15]
  IC50: 0.196 µM
[16]
  IC50: 0.706 µM
[17]
  IC50: 0.487 µM
[18]
  IC50: 1.85 µM
[19]
  IC50: 0.178 µM
[20]
  IC50: 0.801 µM
[21]
  IC50: > 0.016 mM
[22]
  IC50: > 0.016 mM
[23]
  IC50: 0.925 µM
[24]
  IC50: > 0.016 mM
[25]
  IC50: 2.26 µM
[26]
  IC50: > 0.016 mM
[27]
  IC50: > 0.016 mM
[28]
  IC50: 8.82 µM
[29]
  IC50: > 0.016 mM
[30]
  IC50: 0.621 µM
[31]
  IC50: 6.06 µM
[32]
  IC50: > 16 µM
[33]
  IC50: 1.44 µM
[34]
  IC50: 8.26 µM
[35]
  IC50: 2.43 µM
[36]
  IC50: 0.0446 µM
[37]
  IC50: 2.44 µM
[38]
  IC50: 11.2 µM
[39]
  IC50: 0.425 µM
[40]
  IC50: 1.59 µM
[41]
  IC50: > 0.016 mM
[42]
  IC50: > 16 µM
[43]
  IC50: > 16 µM
[44]
  IC50: 0.299 µM
[45]
  IC50: 0.171 µM
[46]
  IC50: 0.474 µM
[47]
  IC50: 4.06 µM
[48]
  IC50: 0.0184 µM
[49]
  IC50: 0.425 µM
[50]
  IC50: > 16 µM
[51]
  IC50: 0.254 µM
